Test results from patent US10231954B2, “Neurodegenerative therapies” (LYTIX BIOPHARMA AS, priority 2014, dated 2019).

Assays:
Type in all cases: biochemical
TAK1 = biological target: T1, TAK1 (Homo sapiens, UniProt O43318); test: Kinase profiling TAK1
T1 sequence (O43318 1-303 limits assumed): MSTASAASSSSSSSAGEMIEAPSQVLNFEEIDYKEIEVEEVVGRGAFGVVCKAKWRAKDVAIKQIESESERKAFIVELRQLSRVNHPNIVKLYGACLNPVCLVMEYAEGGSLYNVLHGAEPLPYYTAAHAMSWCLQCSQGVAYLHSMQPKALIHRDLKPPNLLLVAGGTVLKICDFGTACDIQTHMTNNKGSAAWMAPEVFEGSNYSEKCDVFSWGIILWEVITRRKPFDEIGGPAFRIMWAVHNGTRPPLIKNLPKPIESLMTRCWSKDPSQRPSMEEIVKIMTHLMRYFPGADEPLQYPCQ
T1 sequence (Q15750 437-504 partner limits assumed): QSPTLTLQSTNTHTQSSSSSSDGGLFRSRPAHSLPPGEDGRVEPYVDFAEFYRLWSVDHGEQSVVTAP
Source text: (§1) Any value less that 25 is considered to be highly significant inhibition.

HER4 = HER4 (Homo sapiens, UniProt Q15303); test: Kinase profiling HER4
Source text: as §1

MST2 = biological target: T2, MST2 (Homo sapiens, UniProt Q13188); test: Kinase profiling MST2
T2 sequence (Q13188 1-491): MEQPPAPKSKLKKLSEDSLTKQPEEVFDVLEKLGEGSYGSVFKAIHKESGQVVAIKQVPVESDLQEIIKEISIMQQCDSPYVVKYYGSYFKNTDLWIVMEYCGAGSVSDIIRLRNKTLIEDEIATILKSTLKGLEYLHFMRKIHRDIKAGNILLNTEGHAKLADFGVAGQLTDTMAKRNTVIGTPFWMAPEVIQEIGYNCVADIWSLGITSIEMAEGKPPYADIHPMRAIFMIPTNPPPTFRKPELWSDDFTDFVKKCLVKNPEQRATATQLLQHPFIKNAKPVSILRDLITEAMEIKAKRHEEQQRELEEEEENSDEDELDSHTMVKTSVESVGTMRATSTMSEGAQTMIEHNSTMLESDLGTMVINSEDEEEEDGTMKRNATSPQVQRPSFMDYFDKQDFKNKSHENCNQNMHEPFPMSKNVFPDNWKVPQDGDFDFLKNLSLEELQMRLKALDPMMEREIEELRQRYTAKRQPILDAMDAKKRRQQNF
Source text: as §1

PRK2 = PRK2 (Homo sapiens, UniProt Q16513); test: Kinase profiling PRK2
Source text: as §1

PKD1 = biological target: T3, PKD1 (Homo sapiens, UniProt Q15139); test: Kinase profiling PKD1
T3 sequence (Q15139 1-912): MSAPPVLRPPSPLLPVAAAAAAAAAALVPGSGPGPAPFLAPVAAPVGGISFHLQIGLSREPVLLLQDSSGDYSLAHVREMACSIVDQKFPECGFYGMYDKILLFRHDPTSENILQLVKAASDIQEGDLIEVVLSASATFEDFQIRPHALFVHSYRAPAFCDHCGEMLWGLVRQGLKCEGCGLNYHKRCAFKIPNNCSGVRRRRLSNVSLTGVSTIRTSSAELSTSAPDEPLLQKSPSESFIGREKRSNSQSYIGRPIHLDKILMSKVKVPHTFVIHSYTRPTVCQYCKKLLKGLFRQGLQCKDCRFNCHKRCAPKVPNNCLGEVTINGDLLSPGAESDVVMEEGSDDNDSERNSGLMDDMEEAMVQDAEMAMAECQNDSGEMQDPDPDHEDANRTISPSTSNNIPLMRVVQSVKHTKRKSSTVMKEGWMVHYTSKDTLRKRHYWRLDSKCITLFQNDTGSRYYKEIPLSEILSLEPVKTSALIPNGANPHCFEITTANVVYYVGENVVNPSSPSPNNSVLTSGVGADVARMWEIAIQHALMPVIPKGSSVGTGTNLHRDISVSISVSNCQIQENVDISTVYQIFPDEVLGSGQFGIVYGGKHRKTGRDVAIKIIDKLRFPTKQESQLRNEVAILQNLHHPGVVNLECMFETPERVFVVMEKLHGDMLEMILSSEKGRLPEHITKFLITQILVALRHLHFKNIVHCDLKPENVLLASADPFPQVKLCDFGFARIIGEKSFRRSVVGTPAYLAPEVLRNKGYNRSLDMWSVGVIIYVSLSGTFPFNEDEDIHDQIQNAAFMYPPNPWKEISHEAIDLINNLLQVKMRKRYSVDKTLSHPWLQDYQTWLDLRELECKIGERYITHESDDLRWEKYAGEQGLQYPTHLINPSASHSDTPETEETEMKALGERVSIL
Source text: as §1

ROCK 2 = ROCK 2 (Homo sapiens, UniProt O75116); test: Kinase profiling ROCK 2
Source text: as §1

NEK6 = NEK6 (Homo sapiens, UniProt Q9HC98); test: Kinase profiling NEK6
Source text: as §1

RSK1 = RSK1 (Homo sapiens, UniProt Q15418); test: Kinase profiling RSK1
Source text: as §1

[1] = 100 micromolar inhibitor concentration, 100 is no change
[2] = 100 micromolar inhibitor, 100 = no change

Chain of RSK1 (Q15418 whole entry, species assumed): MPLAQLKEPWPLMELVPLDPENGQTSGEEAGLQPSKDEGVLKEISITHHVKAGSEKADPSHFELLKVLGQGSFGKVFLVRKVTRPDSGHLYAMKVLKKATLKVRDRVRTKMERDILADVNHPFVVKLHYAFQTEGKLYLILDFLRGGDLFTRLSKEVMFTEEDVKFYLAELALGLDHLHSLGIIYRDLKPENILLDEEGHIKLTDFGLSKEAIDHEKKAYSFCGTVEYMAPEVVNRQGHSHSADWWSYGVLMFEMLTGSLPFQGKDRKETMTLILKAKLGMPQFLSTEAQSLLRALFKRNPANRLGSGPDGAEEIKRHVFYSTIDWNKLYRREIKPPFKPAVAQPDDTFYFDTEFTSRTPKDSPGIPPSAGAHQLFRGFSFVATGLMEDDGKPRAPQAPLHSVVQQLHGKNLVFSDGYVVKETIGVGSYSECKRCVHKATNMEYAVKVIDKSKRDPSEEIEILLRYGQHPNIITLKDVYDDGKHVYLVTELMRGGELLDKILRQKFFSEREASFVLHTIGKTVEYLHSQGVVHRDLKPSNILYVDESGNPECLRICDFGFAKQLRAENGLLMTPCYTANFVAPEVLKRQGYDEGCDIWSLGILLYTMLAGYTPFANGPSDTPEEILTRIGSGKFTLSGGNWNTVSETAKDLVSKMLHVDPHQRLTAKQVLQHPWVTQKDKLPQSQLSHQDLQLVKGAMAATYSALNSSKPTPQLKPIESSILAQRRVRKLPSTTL
Chain of HER4 (Q15303 26-1308, species assumed): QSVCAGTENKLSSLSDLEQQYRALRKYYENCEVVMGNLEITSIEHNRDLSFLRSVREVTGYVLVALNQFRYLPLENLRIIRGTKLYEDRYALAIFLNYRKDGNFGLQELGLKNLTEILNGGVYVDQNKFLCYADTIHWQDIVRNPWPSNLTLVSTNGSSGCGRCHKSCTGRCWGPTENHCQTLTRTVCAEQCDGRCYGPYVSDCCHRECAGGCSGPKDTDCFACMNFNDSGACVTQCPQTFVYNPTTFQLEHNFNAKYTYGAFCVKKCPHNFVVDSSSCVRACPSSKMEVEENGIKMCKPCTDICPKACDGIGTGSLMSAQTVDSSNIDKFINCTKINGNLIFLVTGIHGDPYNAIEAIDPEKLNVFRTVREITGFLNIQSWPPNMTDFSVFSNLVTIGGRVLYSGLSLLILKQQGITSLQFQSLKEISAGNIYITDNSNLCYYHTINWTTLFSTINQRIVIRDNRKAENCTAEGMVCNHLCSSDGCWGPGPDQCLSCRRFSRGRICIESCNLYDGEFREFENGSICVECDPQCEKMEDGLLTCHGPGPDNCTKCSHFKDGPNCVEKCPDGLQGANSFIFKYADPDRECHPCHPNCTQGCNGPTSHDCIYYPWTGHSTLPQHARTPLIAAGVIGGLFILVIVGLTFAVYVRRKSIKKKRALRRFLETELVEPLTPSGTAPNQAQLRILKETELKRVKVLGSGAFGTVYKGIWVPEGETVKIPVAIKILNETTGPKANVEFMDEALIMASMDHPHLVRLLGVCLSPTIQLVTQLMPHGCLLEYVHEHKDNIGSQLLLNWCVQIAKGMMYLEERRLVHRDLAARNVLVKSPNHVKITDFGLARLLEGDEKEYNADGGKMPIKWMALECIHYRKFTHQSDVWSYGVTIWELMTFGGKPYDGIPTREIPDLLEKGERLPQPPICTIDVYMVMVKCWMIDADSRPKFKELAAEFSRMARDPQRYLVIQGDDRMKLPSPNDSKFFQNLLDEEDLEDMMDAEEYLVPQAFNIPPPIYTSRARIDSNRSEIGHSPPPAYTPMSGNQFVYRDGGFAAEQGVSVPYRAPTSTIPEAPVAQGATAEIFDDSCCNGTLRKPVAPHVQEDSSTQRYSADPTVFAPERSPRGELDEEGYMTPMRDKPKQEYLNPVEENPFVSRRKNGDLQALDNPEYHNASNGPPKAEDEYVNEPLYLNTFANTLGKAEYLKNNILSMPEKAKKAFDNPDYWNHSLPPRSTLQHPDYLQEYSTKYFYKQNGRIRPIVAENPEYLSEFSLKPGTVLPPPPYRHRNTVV
Chain of NEK6 (Q9HC98 whole entry, species assumed): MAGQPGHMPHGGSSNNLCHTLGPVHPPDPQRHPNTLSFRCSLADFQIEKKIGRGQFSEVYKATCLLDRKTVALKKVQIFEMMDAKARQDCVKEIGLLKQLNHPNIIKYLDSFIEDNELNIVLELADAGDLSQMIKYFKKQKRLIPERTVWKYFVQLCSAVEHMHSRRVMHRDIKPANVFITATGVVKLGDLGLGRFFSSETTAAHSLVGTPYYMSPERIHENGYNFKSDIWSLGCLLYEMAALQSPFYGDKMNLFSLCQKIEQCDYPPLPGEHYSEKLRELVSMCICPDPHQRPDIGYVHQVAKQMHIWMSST
Chain of ROCK 2 (O75116 whole entry, species assumed): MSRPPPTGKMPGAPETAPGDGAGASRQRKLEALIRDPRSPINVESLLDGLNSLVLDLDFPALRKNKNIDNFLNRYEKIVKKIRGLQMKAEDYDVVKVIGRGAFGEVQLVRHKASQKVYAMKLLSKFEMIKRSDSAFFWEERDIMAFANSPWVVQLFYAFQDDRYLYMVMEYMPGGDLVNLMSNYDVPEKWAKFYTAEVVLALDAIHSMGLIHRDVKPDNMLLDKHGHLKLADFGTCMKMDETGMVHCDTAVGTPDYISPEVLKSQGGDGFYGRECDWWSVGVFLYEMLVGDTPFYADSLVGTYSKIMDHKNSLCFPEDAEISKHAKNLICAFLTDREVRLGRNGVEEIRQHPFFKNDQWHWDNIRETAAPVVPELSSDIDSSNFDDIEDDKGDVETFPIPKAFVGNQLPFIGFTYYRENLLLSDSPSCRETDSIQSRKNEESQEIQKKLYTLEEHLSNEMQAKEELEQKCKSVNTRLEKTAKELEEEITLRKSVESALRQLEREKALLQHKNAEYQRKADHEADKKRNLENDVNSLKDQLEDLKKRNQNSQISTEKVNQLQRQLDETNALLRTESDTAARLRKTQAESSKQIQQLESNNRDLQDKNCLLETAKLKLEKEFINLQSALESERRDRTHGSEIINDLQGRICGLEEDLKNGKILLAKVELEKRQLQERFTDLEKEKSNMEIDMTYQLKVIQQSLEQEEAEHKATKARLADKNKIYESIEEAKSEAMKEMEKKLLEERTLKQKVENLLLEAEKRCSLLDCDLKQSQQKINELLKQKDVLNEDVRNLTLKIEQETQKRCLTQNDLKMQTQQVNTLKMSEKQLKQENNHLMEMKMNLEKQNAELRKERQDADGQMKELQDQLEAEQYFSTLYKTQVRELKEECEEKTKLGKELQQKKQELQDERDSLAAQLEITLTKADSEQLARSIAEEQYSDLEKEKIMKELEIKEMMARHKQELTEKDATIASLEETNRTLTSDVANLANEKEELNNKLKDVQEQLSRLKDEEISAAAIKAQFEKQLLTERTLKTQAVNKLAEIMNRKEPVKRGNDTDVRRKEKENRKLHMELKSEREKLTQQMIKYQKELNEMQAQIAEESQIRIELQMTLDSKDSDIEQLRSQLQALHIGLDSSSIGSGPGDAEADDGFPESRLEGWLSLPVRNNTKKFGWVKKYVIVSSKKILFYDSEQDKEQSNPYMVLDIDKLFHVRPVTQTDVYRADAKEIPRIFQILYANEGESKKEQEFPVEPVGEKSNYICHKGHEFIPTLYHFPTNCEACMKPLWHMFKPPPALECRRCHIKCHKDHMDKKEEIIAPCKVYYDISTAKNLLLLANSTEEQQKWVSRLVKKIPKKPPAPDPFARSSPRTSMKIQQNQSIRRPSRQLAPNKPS
Chain of PRK2 (Q16513 whole entry, species assumed): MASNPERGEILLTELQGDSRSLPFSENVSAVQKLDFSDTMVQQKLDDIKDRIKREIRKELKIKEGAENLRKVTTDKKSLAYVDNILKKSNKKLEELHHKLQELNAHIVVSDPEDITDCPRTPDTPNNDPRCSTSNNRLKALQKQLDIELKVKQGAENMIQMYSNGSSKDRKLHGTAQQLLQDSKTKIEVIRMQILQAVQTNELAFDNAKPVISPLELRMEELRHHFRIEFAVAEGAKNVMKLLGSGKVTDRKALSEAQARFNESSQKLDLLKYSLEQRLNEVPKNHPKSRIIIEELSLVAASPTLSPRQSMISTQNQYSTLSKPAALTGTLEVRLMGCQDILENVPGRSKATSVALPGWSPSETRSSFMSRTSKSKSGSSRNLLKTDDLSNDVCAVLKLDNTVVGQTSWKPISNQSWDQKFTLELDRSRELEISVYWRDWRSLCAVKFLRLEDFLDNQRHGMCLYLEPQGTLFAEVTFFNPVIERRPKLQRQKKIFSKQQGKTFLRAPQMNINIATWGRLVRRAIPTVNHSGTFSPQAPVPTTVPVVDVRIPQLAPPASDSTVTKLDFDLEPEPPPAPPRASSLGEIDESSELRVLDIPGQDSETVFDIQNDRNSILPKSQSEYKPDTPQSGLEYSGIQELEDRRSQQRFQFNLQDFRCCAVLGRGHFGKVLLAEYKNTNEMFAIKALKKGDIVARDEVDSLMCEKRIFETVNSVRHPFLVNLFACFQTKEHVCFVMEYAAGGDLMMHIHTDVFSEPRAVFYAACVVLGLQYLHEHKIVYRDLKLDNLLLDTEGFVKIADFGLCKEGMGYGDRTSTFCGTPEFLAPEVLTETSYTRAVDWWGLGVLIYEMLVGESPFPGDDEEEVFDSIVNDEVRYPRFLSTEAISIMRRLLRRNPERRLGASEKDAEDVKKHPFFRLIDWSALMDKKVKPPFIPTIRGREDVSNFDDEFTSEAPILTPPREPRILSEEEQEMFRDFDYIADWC

SMILES: O=C(Nc1nc2ccc(F)cc2s1)c1ccccc1 [Compound 03-92]
- residual kinase activity, TAK1 (TAK1; [1]): 79
- residual kinase activity, HER4 (HER4; [1]): 90
- residual kinase activity, MST2 (MST2; [1]): 110
- residual kinase activity, PRK2 (PRK2; [1]): 95
- residual kinase activity, PKD1 (PKD1; [1]): 111
- residual kinase activity, ROCK 2 (ROCK 2; [1]): 95
- residual kinase activity, NEK6 (NEK6; [1]): 106
- residual kinase activity, RSK1 (RSK1; [1]): 79

SMILES: CC(=O)Nc1nc2ccc(F)cc2s1 [Compound 03-94]
- residual kinase activity, TAK1 (TAK1; [1]): 26
- residual kinase activity, HER4 (HER4; [1]): 101
- residual kinase activity, MST2 (MST2; [1]): 91
- residual kinase activity, PRK2 (PRK2; [1]): 80
- residual kinase activity, PKD1 (PKD1; [1]): 105
- residual kinase activity, ROCK 2 (ROCK 2; [1]): 70
- residual kinase activity, NEK6 (NEK6; [1]): 92
- residual kinase activity, RSK1 (RSK1; [1]): 85

SMILES: COc1ccc2sc(NC(=O)c3ccccc3)nc2c1 [Compound 03-95]
- residual kinase activity, TAK1 (TAK1; [1]): 45
- residual kinase activity, HER4 (HER4; [1]): 81
- residual kinase activity, MST2 (MST2; [1]): 95
- residual kinase activity, PRK2 (PRK2; [1]): 84
- residual kinase activity, PKD1 (PKD1; [1]): 92
- residual kinase activity, ROCK 2 (ROCK 2; [1]): 54
- residual kinase activity, NEK6 (NEK6; [1]): 86
- residual kinase activity, RSK1 (RSK1; [1]): 64

SMILES: COc1ccc2nc(NC(=O)c3ccccc3)sc2c1 [Compound 03-98]
- residual kinase activity, TAK1 (TAK1; [1]): 60
- residual kinase activity, HER4 (HER4; [1]): 73
- residual kinase activity, MST2 (MST2; [1]): 86
- residual kinase activity, PRK2 (PRK2; [1]): 91
- residual kinase activity, PKD1 (PKD1; [1]): 104
- residual kinase activity, ROCK 2 (ROCK 2; [1]): 66
- residual kinase activity, NEK6 (NEK6; [1]): 94
- residual kinase activity, RSK1 (RSK1; [1]): 74

SMILES: O=C(Nc1nc2ccc(C(F)(F)F)cc2s1)c1ccccc1 [Compound 03-99]
- residual kinase activity, TAK1 (TAK1; [1]): 95
- residual kinase activity, HER4 (HER4; [1]): 85
- residual kinase activity, MST2 (MST2; [1]): 93
- residual kinase activity, PRK2 (PRK2; [1]): 85
- residual kinase activity, PKD1 (PKD1; [1]): 114
- residual kinase activity, ROCK 2 (ROCK 2; [1]): 97
- residual kinase activity, NEK6 (NEK6; [1]): 94
- residual kinase activity, RSK1 (RSK1; [1]): 92

SMILES: O=C(Nc1nc2cc(O)ccc2s1)c1ccccc1 [Compound 03-102]
- residual kinase activity, TAK1 (TAK1; [1]): 31
- residual kinase activity, HER4 (HER4; [1]): 45
- residual kinase activity, MST2 (MST2; [1]): 46
- residual kinase activity, PRK2 (PRK2; [1]): 68
- residual kinase activity, PKD1 (PKD1; [1]): 60
- residual kinase activity, ROCK 2 (ROCK 2; [1]): 47
- residual kinase activity, NEK6 (NEK6; [1]): 112
- residual kinase activity, RSK1 (RSK1; [1]): 41

SMILES: COC(=O)c1cccc(C(=O)Nc2nc3ccc(C(F)(F)F)cc3s2)c1 [Compound 03-105, Methyl 3-((6-(trifluoromethyl)benzo[d]thiazol-2-yl)carbamoyl)benzoate]
- remaining activity at 100 µM (TAK1; read-out: residual kinase activity, TAK1): 76%
- remaining activity at 100 µM (HER4; read-out: residual kinase activity, HER4): 122%
- remaining activity at 100 µM (MST2; read-out: residual kinase activity, MST2): 99%
- remaining activity at 100 µM (PRK2; read-out: residual kinase activity, PRK2): 109%
- remaining activity at 100 µM (PKD1; read-out: residual kinase activity, PKD1): 90%
- remaining activity at 100 µM (ROCK 2; read-out: residual kinase activity, ROCK 2): 103%
- remaining activity at 100 µM (NEK6; read-out: residual kinase activity, NEK6): 90%
- remaining activity at 100 µM (RSK1; read-out: residual kinase activity, RSK1): 87%

SMILES: N#Cc1ccc2nc(NC(=O)c3ccccc3)sc2c1 [Compound 03-106]
- residual kinase activity, TAK1 (TAK1; [1]): 37
- residual kinase activity, HER4 (HER4; [1]): 82
- residual kinase activity, MST2 (MST2; [1]): 103
- residual kinase activity, PRK2 (PRK2; [1]): 105
- residual kinase activity, PKD1 (PKD1; [1]): 86
- residual kinase activity, ROCK 2 (ROCK 2; [1]): 125
- residual kinase activity, NEK6 (NEK6; [1]): 97
- residual kinase activity, RSK1 (RSK1; [1]): 96

SMILES: COC(=O)c1cccc(C(=O)Nc2nc3cc(OC)ccc3s2)c1 [Compound 03-108]
- residual kinase activity, TAK1 (TAK1; [1]): 81
- residual kinase activity, HER4 (HER4; [1]): 99
- residual kinase activity, MST2 (MST2; [1]): 77
- residual kinase activity, PRK2 (PRK2; [1]): 100
- residual kinase activity, PKD1 (PKD1; [1]): 102
- residual kinase activity, ROCK 2 (ROCK 2; [1]): 52
- residual kinase activity, NEK6 (NEK6; [1]): 93
- residual kinase activity, RSK1 (RSK1; [1]): 70

SMILES: COC(=O)c1cccc(C(=O)Nc2nc3ccc(F)cc3s2)c1 [Compound 03-110]
- residual kinase activity, TAK1 (TAK1; [1]): 68
- residual kinase activity, HER4 (HER4; [1]): 107
- residual kinase activity, MST2 (MST2; [1]): 88
- residual kinase activity, PRK2 (PRK2; [1]): 85
- residual kinase activity, PKD1 (PKD1; [1]): 88
- residual kinase activity, ROCK 2 (ROCK 2; [1]): 86
- residual kinase activity, NEK6 (NEK6; [1]): 87
- residual kinase activity, RSK1 (RSK1; [1]): 70

SMILES: COc1ccc2sc(NC(=O)c3cccc(C(N)=O)c3)nc2c1 [Compound 03-113]
- residual kinase activity, TAK1 (TAK1; [1]): 35
- residual kinase activity, HER4 (HER4; [1]): 103
- residual kinase activity, MST2 (MST2; [1]): 119
- residual kinase activity, PRK2 (PRK2; [1]): 98
- residual kinase activity, PKD1 (PKD1; [1]): 110
- residual kinase activity, ROCK 2 (ROCK 2; [1]): 68
- residual kinase activity, NEK6 (NEK6; [1]): 99
- residual kinase activity, RSK1 (RSK1; [1]): 87

SMILES: COc1ccc2nc(C(=O)Nc3ccccc3)sc2c1 [Compound 13-03]
- residual kinase activity, TAK1 (TAK1; [2]): 96
- residual kinase activity, HER4 (HER4; [2]): 130
- residual kinase activity, MST2 (MST2; [2]): 107
- residual kinase activity, PRK2 (PRK2; [2]): 105
- residual kinase activity, PKD1 (PKD1; [2]): 113
- residual kinase activity, ROCK 2 (ROCK 2; [2]): 70
- residual kinase activity, NEK6 (NEK6; [2]): 107
- residual kinase activity, RSK1 (RSK1; [2]): 77
